Measured values published in a melting point compilation (Tetko et al.; mined from patent text by program, amines drawn as free bases though some values may be those of a salt).

Row | SMILES | melting point [°C]
1 | Cc1cc(-n2c(=O)cc(C(F)(F)F)[nH]c2=O)c(F)cc1Br | 186
2 | CS(=O)(=O)Nc1cc2occ(C=Cc3ccccc3)c(=O)c2cc1Oc1ccccc1 | 174 to 175
3 | CN(C)CCNc1nccc(N2CCCCCC2)n1 | 53 to 54.5
4 | CCCc1nnc2c(=O)n(C)c3ccc(C(F)(F)F)cc3n12 | 257 to 258
5 | Cn1ncc2c1CC(C)(C)c1cnn(C)c1-2 | 105 to 108
6 | Fc1c(F)c(-c2c(F)c(F)c(Oc3cccc4ccccc34)c(F)c2F)c(F)c(F)c1Oc1cccc2ccccc12 | 189 to 191
7 | CC(C)N[C@@H]1Cc2cccc(O)c2C[C@H]1O (relative stereo) | 138 to 140
8 | O=C(O)C(=O)c1cc(F)c(OCCOc2ccc3ccccc3c2)c(F)c1 | 129 to 130
9 | CC(=CC(C)C)c1ccccc1NC(=O)c1cn(C)nc1C(F)(F)F | 66 to 74
10 | CCOC(=O)c1cnc2c([N+](=O)[O-])cccc2c1Cl | 253 to 254
11 | COc1ccc(C[C@H]2CC[C@@H]3[C@@H](CCC(=O)N3Cc3ccccc3)C2)cc1 | 118 to 119
12 | Cc1nsc(OCC(Cl)(Cl)Cl)c1S(N)(=O)=O | 140 to 142
13 | CN(C)c1cccc(C(=O)NCCc2c3n(c4ccccc24)C(=O)CCC3)c1 | 136
14 | Fc1ccc(-c2cnc3nc(C(F)(F)F)cnn23)cc1-c1ccccn1 | 128 to 131
15 | CC(=O)Nc1ncc(SC#N)s1 | 212
16 | CSc1ccc(C(=O)c2c(C)cc3n2CCC3C(=O)OC(C)c2ccccc2)n1C (centres undefined) | 122 to 123
17 | CC1(c2nn(-c3ccc([N+](=O)[O-])cc3Cl)c(=O)o2)CC1 | 95 to 97
18 | CCCC(=O)/C=C/c1cn(-c2ccccc2)nc1OCc1ccc(OCc2nc(-c3ccco3)oc2C)c(OC)c1 | 167 to 168
19 | O=[N+]([O-])c1ccccc1OCc1csc(-c2ccccc2)n1 | 95
20 | O=C(CC1C(=O)CCc2ccccc21)c1ccccc1 (centres undefined) | 48 to 52
21 | NC(=O)c1ccc2nccn2c1 | 202 to 204
22 | Cn1c2ccccc2c2nc3cccc(CCl)c3nc21 | 204 to 206
23 | N#Cc1c(N2CCNCC2)c2cccnc2n(Cc2ccccc2)c1=O | 211
24 | COCN1C(C)=C(C(=O)OCOC(=O)C(C)(C)C)C(c2cccc(Cl)c2Cl)C(C(=O)OCOC(=O)C(C)(C)C)=C1C | 103 to 104
25 | Clc1ccc2c(C3CCN(CCCC4Cc5ccccc5C4)CC3)c[nH]c2c1 | 134 to 135

Row | SMILES | melting point [°C]
26 | Brc1csc2cc(OCc3ccccc3)ccc12 | 68
27 | C=CCNC(=O)n1nc(NC)n(C)c1=O | 136 to 137
28 | COCC(=O)C(=NNc1ccc(I)cc1F)C(=O)OC | 141 to 146
29 | CCCCC1Oc2ccc(Cl)cc2N(CC(O)CO)C1=O (centres undefined) | 69.5
30 | Cc1ccc2sc(S(=O)(=O)c3ccc(=O)[nH]n3)cc2c1 | 240 to 242
31 | COc1ccc(S(=O)(=O)C2(CCCC#Cc3ccc(Cl)cc3)SC(=O)NC2=O)cc1 (centres undefined) | 172 to 174
32 | CCNC1(c2ccccc2Cl)C(=O)N(Cc2ccc(C(=O)NC(C)(C)C)cc2)c2ccc(Cl)cc21 (centres undefined) | 190 to 195
33 | Cc1c(N2CC(O)C2)c(F)cc2c(=O)n(N)c(=O)n(C3CC3)c12 | 212 to 214
34 | Cc1ncc2cc(C#N)c(O)nc2n1 | > 200
35 | Cc1c(C#N)c(N)nc(Cl)c1C#N | 210
36 | COc1ccc(C(=O)Nc2ccc3ccc(OCCN(C)C)nc3n2)cc1 | 77 to 80
37 | COc1ccc2cc(-c3ccc(OCC(O)CNC(C)(C)C)cc3)n(C)c(=O)c2c1 (centres undefined) | 130 to 131
38 | O=C(O)c1cc(OCC(F)(F)F)cc(Oc2cccc(C(F)(F)F)c2)n1 | 93 to 95
39 | O=C(O)c1cc([N+](=O)[O-])cs1 | 110 to 118
40 | CCCCCCOc1ccc(C(=O)c2cccc(C(=O)O)c2)c(C)c1 | 136 to 138
41 | Cc1c(N)c(C)c(Cc2ccc(C(C)C)cc2)c2c1CCO2 | 114 to 115
42 | Cc1cc(C)c(NC(=O)N(Cc2cc3ccccc3c3ccccc23)C2CCCCC2)c(C)c1 | 125 to 128
43 | O=[N+]([O-])c1n[nH]c(-c2ccc(C(F)F)c(C(SC(c3cc(-c4nc([N+](=O)[O-])n[nH]4)ccc3C(F)F)C(F)(F)F)C(F)(F)F)c2)n1 (centres undefined) | 74 to 76
44 | CCCCc1nc(Cl)c(C=O)n1Cc1ccc(-c2ccccc2C#N)cc1 | 96 to 97
45 | CC(C)n1c(=O)[nH]c(C(F)(F)F)c(Br)c1=O | 149 to 150
46 | O=C(NC[C@H]1CN(c2ccc(C3C=CS(=O)(=O)CC3)cc2)C(=O)O1)C(Cl)Cl (some centres undefined) | 159 to 161
47 | Cc1cc(O)c(C2CCCCC2)cc1Sc1cc(C2CCCCC2)c(O)cc1C | 128 to 130
48 | CNN(NC)C(=O)Nc1cccc2c1C(=O)c1c-2n[nH]c1-c1ccsc1 | 202
49 | O=C(O)CNC[C@H]1O[C@H](c2ccccc2Cl)c2cc(Cl)ccc2N(Cc2ccccc2)C1=O (relative stereo) | 224 to 226
50 | Nc1nc(N)c(-c2ccc(Cl)cc2Cl)c(CF)n1 | 210 to 211

Row | SMILES | melting point [°C]
51 | CCN1C(=O)C(C)(C)C(=O)N(C)c2cc(CN(CCn3cc(C)c4sccc4c3=O)Cc3cnccc3C)ccc21 | 174 to 175
52 | CCOc1nn(-c2ccc(C(F)(F)F)cc2)cc1CCCOc1cc(CCC(=O)O)n(-c2ccccc2)n1 | 126 to 127
53 | COc1ccccc1-c1ccccc1C#N | 54 to 55
54 | O=C1C(=O)c2ccc(Br)cc2C2=C1SCC1(CCN(CC(O)COc3ccc(Cl)cc3)CC1)O2 (centres undefined) | 150 to 152
55 | CCOC(=O)c1nn(-c2ccc(Cl)cc2)c2c1CCCC2 | 139 to 140
56 | O=C(O)C=CC(=O)Nc1ccc(C(=O)O)cc1 | 217 to 219
57 | O=[N+]([O-])c1ccc2c(c1)Sc1cc(Br)ccc1N2 | > 250
58 | N#Cc1ccc(Cc2ccc(OCc3ccccc3)cc2)cc1 | 110 to 111
59 | CNC(=O)ON=C1N=C(C)C(C)(CC(C)C)S1 (centres undefined) | 99 to 101
60 | CCOC(=O)c1cnc2n(c1=O)C(C)CC=C2Nc1ccccc1 (centres undefined) | 119 to 120
61 | COc1cc(OC)nc(NC(=O)NS(=O)(=O)c2ccccc2S(=O)(=O)NC(=O)Nc2nc(OC)cc(OC)n2)n1 | 201 to 203
62 | O=Cc1ccn(-c2c(Cl)cc(C(F)(F)F)cc2Cl)c(=O)c1 | 115 to 117
63 | Cc1nc(-c2ccc(C(F)(F)F)cc2)sc1CCOc1ccc(CCC(=O)O)cc1 | 128 to 130
64 | Cn1c(=O)c2c(N)ncnc2n(C)c1=O | > 300
65 | CCCc1nc2c(N)nc3ccccc3c2n1CCCCNS(C)(=O)=O | 186 to 188
66 | COc1cc(-c2cnc3[nH]cc(C(=O)C4(C)CCCC(C)C4)c3n2)cc(OC)c1OC (centres undefined) | 229 to 231
67 | COc1ccc(-c2nc(Sc3ccc(C)cc3)[nH]c2-c2ccc(OC)cc2)cc1 | 181
68 | COC(=O)C1(CC(CCCl)=C(C)C)C(=O)C=C(OC(C)C)CC1C (centres undefined) | 76 to 77
69 | COC(=O)c1ccc(C(C(N)=O)C(C)c2cc(Cl)ccc2N2CCCC2)cc1 (centres undefined) | 133 to 135
70 | O=C(CCNNC(=O)c1ccccc1)OCc1ccccc1 | 65
71 | Cc1ccc(Br)cc1-n1nc(-c2ccc(O)cc2O)c2ccc(O)cc21 | 88 to 91
72 | CCN1c2ncc(Cc3cccc(F)c3)cc2C(=O)N(C)c2ccc(Cl)nc21 | 104 to 105
73 | Cc1cc(-c2cc(=O)c3cccnc3o2)ccc1O | 300 to 302
74 | O=CC1C(=O)NC(=O)N1CCCCCCC(=O)O (centres undefined) | 224 to 225
75 | O=C1c2ccc([N+](=O)[O-])cc2S(=O)(=O)N1CSc1ccccc1 | 161 to 163

Row | SMILES | melting point [°C]
76 | Cc1ccccc1-n1c(CCl)nc2ccccc2c1=O | 205 to 206
77 | COC(=O)c1cc(C)c(C(OC(=O)C(C)c2ccc3cc(OC)ccc3c2)c2cc(-n3ccnc3)ccc2C)c(C)c1 (centres undefined) | 115 to 117
78 | O=C(O)CCCc1cc2cc(Cl)ccc2n1S(=O)(=O)c1ccc2c(c1)CCN2 | 203
79 | CC(=O)Oc1cc2c(c3ccccc13)N(C(=O)OC(C)OC(C)=O)c1ccccc1S2 (centres undefined) | 76 to 78
80 | CCOc1cc2c(cc1OC)C(c1ccc(C(=O)OC)cc1)=N[C@@H]1CCOC[C@H]21 | 141 to 143
81 | CSc1cn(CC(C)N(O)C(N)=O)c2ccccc12 (centres undefined) | 87 to 90
82 | O=[N+]([O-])c1ccc2c(c1)OC(c1ccccc1)O2 (centres undefined) | 84 to 85
83 | CC1=C(C(=O)O)C(c2ccccc2[N+](=O)[O-])C(C(=O)OCCC#N)=C(C)N1 (centres undefined) | 132 to 134
84 | O=C(O)C=Cc1cn(Cc2cc(OCc3ccccc3)cc(OCc3ccccc3)c2)cc1-c1ccccc1 | 182 to 183
85 | CCOP(=S)(OCC)SC(=CC(=O)c1cccc(Br)c1)C(=O)O | 107 to 111
86 | CCC(CN1C(=O)c2ccccc2C1=O)n1cnc(-c2cccnc2)c1 (centres undefined) | 150 to 152
87 | S=C=NC1(Br)C=Cc2nccnc2C1 (centres undefined) | 157 to 158
88 | COC1=C(OCCCCCc2ccccc2)C2OC2(C=O)C=C1 (centres undefined) | 65 to 67
89 | CC1=C(C=O)C(C)(C)c2c(C)c(C)c(C)c(C)c21 | 176
90 | CC(C)(C)OC(=O)NCCOc1ccc(OCC2(C)OCCO2)cc1 | 80 to 82
91 | O=C(O)c1cc([N+](=O)[O-])ccc1NCCc1ccccc1 | 116 to 118
92 | CCCCOc1ccc(S(=O)(=O)C2(C(=O)NO)CCN(C)CC2)cc1 | 118
93 | Fc1ccc(Cn2c(NC3CCN(CCNc4nccs4)C3)nc3ccccc32)cc1 (centres undefined) | 127
94 | O=C1COc2ccc3c(c2N1)C(=O)CC3 | 136 to 139
95 | c1ccc2sc(SSN3CCOCC3)nc2c1 | 132 to 136
96 | O=c1c2c(N3CCNCC3)cc(Cl)cc2n(Cc2ccccc2)c(=O)n1Cc1ccccc1Br | 94 to 97
97 | Cc1cccc(-c2nc(C)cc(-c3ccccc3Cl)n2)n1 | 90.8
98 | CC(C)NC(=S)N1CCc2[nH]cnc2C1C(C)C (centres undefined) | 203
99 | CN(Cc1ccccc1)C(=O)COc1ccc([N+](=O)[O-])cc1 | 95 to 96
